According to ChEMBL document CHEMBL1201862, “PubChem BioAssay data set” (2004):
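Growth conditions: 96-well plates. Treatment: test compound, 48 hours, 5 concentrations. Analysis: linear interpolation between bracketing concentrations; unreached endpoints set to highest concentration. GI50 is the concentration that inhibits growth by half.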 Activity calls are given as the source filed them. Rule as the data show it: active = GI50 up to about 1.1 µM and inactive = higher.

How the values were obtained:
Assay in all cases: inhibition of tumour cell growth, NCI panel, 48 h
HOP-18 = tested on: HOP-18
DLD-1 = tested on: DLD-1
DMS-273 = tested on: DMS-273
LXFL 529 = tested on: LXFL 529
SNB-78 = tested on: SNB-78
XF498 = tested on: XF498
M19-MEL = tested on: M19-MEL
DMS-114 = tested on: DMS-114
RXF 631 = tested on: RXF 631

SMILES | GI50 (HOP-18) | GI50 (DLD-1) | GI50 (DMS-273) | GI50 (LXFL 529) | GI50 (SNB-78) | GI50 (XF498) | GI50 (M19-MEL) | GI50 (DMS-114) | GI50 (RXF 631)
COC(=O)C1=C(O)c2cc(-c3ccccc3)c(-c3ccccc3)c(C#N)c2NC(=O)C1 | < 0.01 µM (active) | 6.3 µM (inactive) | 2.13 µM (inactive) | 1.3 µM (inactive) | 14 µM (inactive) | 49 µM (inactive) | 14.5 µM (inactive) | 29.6 µM (inactive) | 3.56 µM (inactive)
CC(C)c1ccccc1NC(=O)CCc1n[nH]c(=S)o1 | > 100 µM (inactive) | > 54.5 µM (inactive) | > 54.3 µM (inactive) | > 79.8 µM (inactive) | > 100 µM (inactive) | > 100 µM (inactive) | > 100 µM (inactive) | > 67 µM (inactive) | > 100 µM (inactive)
Cc1cc(C)nc(NS(=O)(=O)c2ccc(Nc3c4ccccc4nc4c(C(=O)NCCN(C)C)cccc34)cc2)n1 | – | 5.15 µM (inactive) | 0.813 µM (active) | 4.25 µM (inactive) | 11.5 µM (inactive) | 13.7 µM (inactive) | 3.44 µM (inactive) | 1.04 µM (active) | 0.986 µM (active)
O=C(N/C(=C\c1ccc(/C=C(\NC(=O)c2ccccc2)c2nc3ccccc3[nH]2)cc1)c1nc2ccccc2[nH]1)c1ccccc1 | > 100 µM (inactive) | > 100 µM (inactive) | 52.8 µM (inactive) | > 100 µM (inactive) | > 100 µM (inactive) | > 100 µM (inactive) | > 100 µM (inactive) | > 100 µM (inactive) | –
CSC(C1c2ccccc2N(c2ccc(C)cc2)C2=NC(=O)N(C)C(=O)C21Cl)S(=O)(=O)c1ccc(C)cc1 (configuration not stated) | – | 16.3 µM (inactive) | 20 µM (inactive) | 17.5 µM (inactive) | 27.9 µM (inactive) | 30.8 µM (inactive) | 23.7 µM (inactive) | 19 µM (inactive) | –
O=S(=O)(N/N=C/c1ccc(Cl)cc1Cl)c1ccccc1 | 57.5 µM (inactive) | > 100 µM (inactive) | 66.7 µM (inactive) | 74.3 µM (inactive) | > 100 µM (inactive) | 78.7 µM (inactive) | > 100 µM (inactive) | 29.4 µM (inactive) | 61.1 µM (inactive)
Cc1cc2c(C)n[nH]c2c(C(=O)O)c1C | – | > 100 µM (inactive) | > 100 µM (inactive) | > 100 µM (inactive) | 36.2 µM (inactive) | > 100 µM (inactive) | > 100 µM (inactive) | > 100 µM (inactive) | –
COc1cc2c(cc1OC)C1Cc3cc(OC)c(OC)cc3N1CC2 (configuration not stated) | – | 39.8 µM (inactive) | – | 19.3 µM (inactive) | 39.8 µM (inactive) | 18.5 µM (inactive) | 13.3 µM (inactive) | 15.1 µM (inactive) | –
CS(=O)(=O)CS(=O)(=O)OCCCl | 438 µM (inactive) | 333 µM (inactive) | 236 µM (inactive) | – | 96.8 µM (inactive) | – | 286 µM (inactive) | 86.7 µM (inactive) | –
Brc1ccccc1/C=N\C12CC3CC(CC(C3)C1)C2 | > 100 µM (inactive) | 1.41 µM (inactive) | 11.3 µM (inactive) | 10.3 µM (inactive) | > 91.4 µM (inactive) | > 100 µM (inactive) | > 76.6 µM (inactive) | 5.77 µM (inactive) | > 79.4 µM (inactive)
O=C(O)c1c2c(cc3c(=O)c4ccccc4[nH]c13)CCCC2 | > 100 µM (inactive) | – | 83 µM (inactive) | > 100 µM (inactive) | > 100 µM (inactive) | > 100 µM (inactive) | > 100 µM (inactive) | – | > 100 µM (inactive)
O=C(/C=C/c1ccc(Cl)cc1)c1ccncc1 | > 100 µM (inactive) | 41 µM (inactive) | 69.3 µM (inactive) | 60.5 µM (inactive) | > 100 µM (inactive) | – | 26.9 µM (inactive) | 48.1 µM (inactive) | 31.8 µM (inactive)
Cc1nc2ccccc2[s+]c1-c1cnc(NC#N)nc1C(=O)Nc1cccc(Cl)c1 | > 100 µM (inactive) | > 100 µM (inactive) | > 100 µM (inactive) | > 100 µM (inactive) | > 100 µM (inactive) | – | > 100 µM (inactive) | > 100 µM (inactive) | –
COc1cc(CCc2ccncc2)cc(OC)c1OC | > 100 µM (inactive) | > 100 µM (inactive) | > 100 µM (inactive) | > 100 µM (inactive) | > 100 µM (inactive) | > 100 µM (inactive) | > 100 µM (inactive) | > 100 µM (inactive) | > 100 µM (inactive)
CCCNCCCCC(NC(C)=O)C(=O)NCc1ccccc1 (configuration not stated) | – | > 100 µM (inactive) | > 100 µM (inactive) | > 100 µM (inactive) | > 100 µM (inactive) | > 100 µM (inactive) | > 100 µM (inactive) | > 100 µM (inactive) | > 100 µM (inactive)
N#CC(C(=O)C(=O)C(C#N)c1ccc(Br)cc1)c1ccc(Br)cc1 (configuration not stated) | 11.4 µM (inactive) | 14.3 µM (inactive) | 12.1 µM (inactive) | – | 12.2 µM (inactive) | – | 12.1 µM (inactive) | 12.1 µM (inactive) | –
CC(=O)c1ccc(-c2ccc(C(C)=O)s2)s1 | > 100 µM (inactive) | > 100 µM (inactive) | > 100 µM (inactive) | > 100 µM (inactive) | > 100 µM (inactive) | > 100 µM (inactive) | > 100 µM (inactive) | 1.43 µM (inactive) | > 100 µM (inactive)
COC1CC(n2cc(F)c(N)nc2=O)OC1CO (configuration not stated) | 49.4 µM (inactive) | > 100 µM (inactive) | > 100 µM (inactive) | > 100 µM (inactive) | > 100 µM (inactive) | > 100 µM (inactive) | – | > 100 µM (inactive) | > 100 µM (inactive)
Fc1ccc(C2SCc3nc4ccccc4n32)cc1Cl (configuration not stated) | – | 23 µM (inactive) | > 10 µM (inactive) | 18.6 µM (inactive) | 48.8 µM (inactive) | 14 µM (inactive) | 19.8 µM (inactive) | 19.9 µM (inactive) | 32.9 µM (inactive)
CC(=O)c1c(O)c2c([nH]c1=O)CCCC2 | > 100 µM (inactive) | 21.6 µM (inactive) | 25.6 µM (inactive) | > 100 µM (inactive) | > 100 µM (inactive) | 64.6 µM (inactive) | 21 µM (inactive) | 25.4 µM (inactive) | 21.8 µM (inactive)
